Results on four compounds are retold here after ChEMBL document CHEMBL5108010, “Structure-activity relationship studies on divalent naphthalene diimide G quadruplex ligands with anticancer and antiparasitic activity” (Bioorg Med Chem, 2022).

Molecules are shown by their SMILES. Where “and” joins values, the source holds several entries; their conditions need not be identical. Identical values can stand only once.

The nature of series [1]: Drug uptake in Trypanosoma brucei assessed as drug internalization at 5 uM incubated for 2 hrs by DAPI staining based confocal fluorescence microscopic analysis. The series is classed as ADME.
A short description of series [2]: Drug internalization in nuclei of Trypanosoma brucei at 5 uM incubated for 6 hrs by DAPI staining based confocal fluorescence microscopic analysis. The series is classed as ADME.
Series [3] is described as follows: Selectivity index, ratio of IC50 for cytotoxicity against human MRC5 cells to IC50 for antitrypanosomal activity against Trypanosoma brucei bloodstream form. The note with it: for selectivity ratio: MRC5 cells versus Trypanosoma brucei bloodstream form, read-out: Ratio IC50. The series is classed as toxicity, cell-based.
Series [4] can be described thus: Drug uptake in human MRC5 cells assessed as drug internalization at 5 uM incubated for 120 mins by DAPI staining based confocal fluorescence microscopic analysis. Type of series: ADME, cell-based. The conditions noted are these: mrc5, 2 h.
In the next series the test system is HeLa. Nature of the series: Cytotoxicity against human HeLa cells assessed as inhibition of cell proliferation incubated for 72 hrs by alamar blue assay. Type of series: functional, cell-based. (The colour change of resazurin is a common sign of viable cells or microbes.)
In a further series the test system is Trypanosoma brucei. Nature of the series: Antitrypanosomal activity against Trypanosoma brucei bloodstream form assessed as inhibition of parasite growth incubated for 72 hrs by alamar blue assay. The series is classed as functional, organism-based.
The nature of series [5]: (§1) Cytotoxicity against human MRC5 cells assessed as inhibition of cell proliferation incubated for 72 hrs by alamar blue assay. The note with it: human, MRC5 cells. Type of series: toxicity, cell-based.
The nature of series [6]: Drug uptake in human MRC5 cells assessed as drug internalization at 5 uM incubated for 30 mins by DAPI staining based confocal fluorescence microscopic analysis. Type of series: ADME, cell-based. The note with it: mrc5, 0.5 h.
In another series the test system is Leishmania major. The experiment in a line: Antileishmanial activity against Leishmania major (MHOM/IL/80/Friedlin) promastigotes assessed as inhibition of parasite growth incubated for 72 hrs by MTT assay. The series is classed as functional, organism-based.
The nature of series [7]: Selectivity index, ratio of IC50 for cytotoxicity against human MRC5 cells to IC50 for antileishmanial activity against Leishmania major (MHOM/IL/80/Friedlin) promastigotes. The series is classed as toxicity, cell-based. The note with it: read-out: Ratio IC50.
A short description of series [8]: Selectivity index, ratio of IC50 for cytotoxicity against human MRC5 cells to IC50 for cytotoxicity against human HeLa cells. The series is classed as toxicity, cell-based. The conditions noted are these: for selectivity ratio: MRC5 cells versus HeLa cells, read-out: Ratio IC50.
Series [9] is described as follows: Drug uptake in human MRC5 cells incubated at 37 degreeC for 30 mins by flow cytometry analysis. Type of series: ADME, cell-based. The conditions noted are these: mrc5, 0.5 h. A general note: Flow cytometry measures light scatter and fluorescence of single cells or particles in a stream.
Series [10] concerns Quadruplex DNA. The experiment in a line: Binding affinity to Trypanosoma brucei G-quadruplex telomeric DNA FEBR1T (5'-duplex GGG TTAGGG TTAGGG TTAGGG-3') assessed as stabilization by measuring change in melting temperature at 10 uM in potassium buffer by FRET melting assay. Type of series: nucleic-acid assay.
A short description of series [11]: Drug uptake in Trypanosoma brucei assessed as drug internalization at 5 uM incubated for 6 hrs by DAPI staining based confocal fluorescence microscopic analysis. Type of series: ADME.
The test system of series [12] is Quadruplex DNA. Nature of the series: Binding affinity to G-quadruplex telomeric DNA F21T (5'-duplex GGG TTAGGG TTAGGG TTAGGG-3') (unknown origin) assessed as stabilization by measuring change in melting temperature at 10 uM in potassium buffer by FRET melting assay. The series is classed as nucleic-acid assay.
Series [13] is described as follows: Drug uptake in Trypanosoma brucei incubated at 37 degreeC for 16 hrs by flow cytometry analysis. Type of series: ADME.
Series [14] can be described thus: Drug internalization in nuclei of human MRC5 cells at 5 uM incubated for 2 hrs by DAPI staining based confocal fluorescence microscopic analysis. The series is classed as ADME, cell-based. The conditions noted are these: mrc5, 2 h.
A short description of series [15]: Drug uptake in Trypanosoma brucei incubated at 37 degreeC for 2 hrs by flow cytometry analysis. The series is classed as ADME.
The nature of series [16]: Drug uptake in Trypanosoma brucei incubated at 4 degreeC for 2 hrs by flow cytometry analysis. The series is classed as ADME.
Series [17] concerns Quadruplex DNA. The experiment in a line: Binding affinity to G-quadruplex telomeric DNA FMycT (5'-duplex GGG TTAGGG TTAGGG TTAGGG-3') (unknown origin) assessed as stabilization by measuring change in melting temperature at 10 uM in potassium buffer by FRET melting assay. The series is classed as nucleic-acid assay.
Series [18] in a line: Binding affinity to hairpin duplex DNA F10T (unknown origin) assessed as stabilization by measuring change in melting temperature at 10 uM in potassium buffer by FRET melting assay.
Series [19] is described as follows: Drug uptake in human MRC5 cells incubated at 37 degreeC for 2 hrs by flow cytometry analysis. Type of series: ADME, cell-based. The conditions noted are these: mrc5, 2 h.
The nature of series [20]: Drug uptake in human MRC5 cells incubated at 4 degreeC for 2 hrs by flow cytometry analysis. The conditions noted are these: mrc5, 2 h. Type of series: ADME, cell-based.
Series [21] relates to Quadruplex DNA. The experiment in a line: Binding affinity to G-quadruplex telomeric DNA F21T (5'-duplex GGG TTAGGG TTAGGG TTAGGG-3') (unknown origin) assessed as stabilization by measuring change in melting temperature at 10 uM in sodium buffer by FRET melting assay. The series is classed as nucleic-acid assay.
Series [22] is described as follows: Drug uptake in human MRC5 cells incubated at 4 degreeC for 30 mins by flow cytometry analysis. Type of series: ADME, cell-based. The conditions noted are these: mrc5, 0.5 h.
Series [23] in a line: Drug uptake in Trypanosoma brucei incubated at 4 degreeC for 16 hrs by flow cytometry analysis. The series is classed as ADME.
The next series relates to MRC5. Described as §1. The note with it: mrc5. Type of series: toxicity, cell-based.
Series [24] deals with Quadruplex DNA. Nature of the series: Binding affinity to G-quadruplex telomeric DNA F21T (5'-duplex GGG TTAGGG TTAGGG TTAGGG-3') (unknown origin) assessed as stabilization by measuring change in melting temperature at 1 uM in potassium buffer by FRET melting assay. Type of series: nucleic-acid assay.
Series [25] has as its system Quadruplex DNA. Nature of the series: Binding affinity to G-quadruplex telomeric DNA FMycT (5'-duplex GGG TTAGGG TTAGGG TTAGGG-3') (unknown origin) assessed as stabilization by measuring change in melting temperature at 1 uM in potassium buffer by FRET melting assay. The series is classed as nucleic-acid assay.
In series [26] the test system is Quadruplex DNA. Nature of the series: Binding affinity to G-quadruplex telomeric DNA F21T (5'-duplex GGG TTAGGG TTAGGG TTAGGG-3') (unknown origin) assessed as stabilization by measuring change in melting temperature at 1 uM in sodium buffer by FRET melting assay. Type of series: nucleic-acid assay.
Series [27] is described as follows: Binding affinity to hairpin duplex DNA F10T (unknown origin) assessed as stabilization by measuring change in melting temperature at 1 uM in potassium buffer by FRET melting assay.
For series [28], the system named is Quadruplex DNA. The experiment in a line: Binding affinity to Trypanosoma brucei G-quadruplex telomeric DNA FEBR1T (5'-duplex GGG TTAGGG TTAGGG TTAGGG-3') assessed as stabilization by measuring change in melting temperature at 1 uM in potassium buffer by FRET melting assay. Type of series: nucleic-acid assay.
The mark [29] stands for this setting: Leishmania major, MHOM/IL/80/Friedlin, 72 h.

With `CN1CCN(c2ccc(N3C(=O)c4ccc5c6c(ccc(c46)C3=O)C(=O)N(c3ccc(N4CCN(C)CC4)cc3)C5=O)cc2)CC1`, the Drug uptake result in series [1], in [2], in series [4], in series [6], in series [9] and in series [11] was “Active” throughout. The Drug uptake entry in series [13], in series [14], in [15], in series [16], in series [19] and in series [20] was “Active” each time. The Drug uptake result in series [22] and in series [23] was “Active” each time. Also, the selectivity ratio in series [3] is 29.5; in series [7], 23.8; in series [8], 9.72. The IC50 (usually the point on the concentration scale where inhibition reaches its midpoint) with HeLa (Homo sapiens, HeLa, 72 h) is 2290 nM; in the series on Trypanosoma brucei (Trypanosoma brucei, 72 h), 750 nM; in the series with Leishmania major (setting [29]), 930 nM. In series [5], the IC50 at 72 h was found to be 22300 nM. Besides, the ΔTm (usually the change in melting temperature against a reference sample) is 0.9 °C in the series with Quadruplex DNA [10]; 1.4 °C with Quadruplex DNA [12]; 1.8 °C in the series on Quadruplex DNA [17]; -0.1 °C in series [18]; 1.3 °C in the series with Quadruplex DNA [21].
Take `CN1CCN(c2ccccc2N2C(=O)c3ccc4c5c(ccc(c35)C2=O)C(=O)N(c2ccccc2N2CCN(C)CC2)C4=O)CC1`: the “Ratio IC50” value is 30.69 and 10.53 in series [3]; 1.66 in series [8]. Further, the IC50 is 1210 nM with HeLa (Homo sapiens, HeLa, 72 h); 740 nM in the series with HeLa (hela); 48 nM and 110 nM in the series with Trypanosoma brucei; 1230 nM in the series on MRC5; 790 nM and 3110 nM in the series with Leishmania major. The IC50 at 72 h in series [5] amounted to 1500 nM. Besides, the selectivity ratio in series [8] amounted to 1.23. The ΔTm in the series with Quadruplex DNA [12] is 1.6 °C and 1.9 °C; in the series with Quadruplex DNA [17] it was 0.9 °C and 2.3 °C; in series [18], 0.1 °C and -0.3 °C; in the series with Quadruplex DNA [21], 1.4 °C and 1.9 °C.
As for `C[n+]1ccc(-c2c3nc(c(-c4cc[n+](C)cc4)c4ccc([nH]4)c(-c4cc[n+](C)cc4)c4ccc([nH]4)c(-c4cc[n+](C)cc4)c4nc2C=C4)C=C3)cc1`, the ΔTm came out at 28.1 °C with Quadruplex DNA [24]; 27.5 °C in the series on Quadruplex DNA [25]; 34.2 °C in the series with Quadruplex DNA [26]; 7.2 °C in series [27]; 28 °C with Quadruplex DNA [28].
Consider `C[n+]1ccc(CN2C(=O)c3ccc4c5c(ccc(c35)C2=O)C(=O)N(Cc2cc[n+](C)cc2)C4=O)cc1`, for which the selectivity ratio in series [3] was found to be 0.49; in [7], 0.31; in series [8], 0.033. Further, the IC50 in the series with HeLa (Homo sapiens, HeLa, 72 h) was 14700 nM; with Trypanosoma brucei (Trypanosoma brucei, 72 h) it was 980 nM; in the series with Leishmania major (setting [29]) it was 1560 nM. Also, the IC50 at 72 h in series [5] was 490 nM. Besides, the ΔTm in the series with Quadruplex DNA [10] amounted to 9 °C; in the series on Quadruplex DNA [12] it was 13 °C; in the series on Quadruplex DNA [17], 20.1 °C; in series [18], 5 °C; in the series on Quadruplex DNA [21], 4.9 °C.
